Source: ChEMBL document CHEMBL6103652, “Niacin Ester Derivative of Brefeldin A as a Potential Dual-Target Arf1/BMX Inhibitor for Bladder Cancer” (J Nat Prod, 2025)
Values after ≈ are worked out from the molar mass of the structure shown. Active and inactive are the calls of the source. The rule behind the calls is not given here.

Columns and labels:
T-24 [1] = test: Antiproliferative activity against human T24 cells assessed as inhibition of cell proliferation at 0.25 uM incubated for 120 hrs by MTT assay relative to control; type: functional
T-24 [2] = test: Antiproliferative activity against human T24 cells assessed as inhibition of cell proliferation measured after 72 hrs by MTT assay; type: functional, cell-based; details: T-24, 72 h
A549 = test: Antiproliferative activity against human A549 cells assessed as inhibition of cell proliferation measured after 72 hrs by MTT assay; type: functional, cell-based; details: A549, 72 h
Bel-7402 = test: Antiproliferative activity against human Bel-7402 cells assessed as inhibition of cell proliferation measured after 72 hrs by MTT assay; type: functional, cell-based; details: Bel-7402, 72 h
HCT-116 = test: Antiproliferative activity against human HCT-116 cells assessed as inhibition of cell proliferation measured after 72 hrs by MTT assay; type: functional, cell-based; details: HCT-116, 72 h
T-24 [3] = test: Inhibition of cell migration in human T24 cells at 0.25 uM incubated for 12 hrs by scratch assay (reference value: 66 %); type: functional
T-24 [4] = test: Inhibition of cell migration in human T24 cells at 0.125 uM incubated for 12 hrs by scratch assay (reference value: 66 %); type: functional; details: T-24, 12 h
T-24 [5] = test: Inhibition of cell migration in human T24 cells at 0.25 uM incubated for 24 hrs by scratch assay (reference value: 88 %); type: functional; details: T-24, 24 h
T-24 [6] = test: Inhibition of cell migration in human T24 cells at 0.50 uM incubated for 24 hrs by scratch assay (reference value: 88 %); type: functional; details: T-24, 24 h
T-24 [7] = test: Induction of cell cycle arrest in human T24 cells assessed as accumulation of cells at G1 phase at 0.13 uM incubated for 24 hrs by RNase A/Propidium Iodide staining based flow cytometry analysis (reference value: 43.80 %); type: functional
T-24 [8] = test: Induction of cell cycle arrest in human T24 cells assessed as accumulation of cells at G1 phase at 0.25 uM incubated for 24 hrs by RNase A/Propidium Iodide staining based flow cytometry analysis (reference value: 43.80 %); type: functional
T-24 [9] = test: Induction of cell cycle arrest in human T24 cells assessed as accumulation of cells at G1 phase at 0.50 uM incubated for 24 hrs by RNase A/Propidium Iodide staining based flow cytometry analysis (reference value: 43.80 %); type: functional; details: dose 0.5 µM
T-24 [10] = test: Induction of cell cycle arrest in human T24 cells assessed as accumulation of cells at S phase at 0.25 uM incubated for 24 hrs by RNase A/Propidium Iodide staining based flow cytometry analysis (reference value: 31.27 %); type: functional
T-24 [11] = test: Induction of cell cycle arrest in human T24 cells assessed as accumulation of cells at G2/M phase at 0.13 uM incubated for 24 hrs by RNase A/Propidium Iodide staining based flow cytometry analysis (reference value: 22.67 %); type: functional
T-24 [12] = test: Induction in apoptosis in human T24 cells assessed as viable cells at 0.25 uM incubated for 48 hrs by Annexin V-FITC staining based flow cytometry analysis (reference value: 90.44 %); type: functional; details: read-out: Activity
T-24 [13] = test: Induction in apoptosis in human T24 cells assessed as viable cells at 0.5 uM incubated for 48 hrs by Annexin V-FITC staining based flow cytometry analysis (reference value: 90.44 %); type: functional; details: read-out: Activity
T-24 [14] = test: Induction in apoptosis in human T24 cells assessed as early apoptotic cells at 0.5 uM incubated for 48 hrs by Annexin V-FITC staining based flow cytometry analysis (reference value: 3.64 %); type: functional
T-24 [15] = test: Induction in apoptosis in human T24 cells assessed as necrotic cells at 0.5 uM incubated for 48 hrs by Annexin V-FITC staining based flow cytometry analysis (reference value: 1.14 %); type: functional
T24 = test: Inhibition of AKT phosphorylation in human T24 cells incubated for 24 hrs by Western blotting analysis; type: cell-based; details: dose 0.13-0.5 µM
[16] = Downregulation of p-BMX expression level in human T24 cells at 0.5 uM incubated for 24 hrs by Western blotting analysis relative to control; type: functional, T-24
[17] = Downregulation of STAT3 expression level in human T24 cells at 0.25 uM incubated for 24 hrs by Western blotting analysis relative to control; type: functional, T-24
[18] = Toxicity in ICR mouse assessed as body weight change at 688 mg/kg, IG administered once for 14 days; type: organism-based; details: in vivo, po, 336 h, time 14 day
[19] = Toxicity in ICR mouse assessed as body weight change at 100 mg/kg, ip administered once for 14 days; type: organism-based; details: in vivo, 336 h, time 14 day
[20] = Half life in Sprague-Dawley rat at 5 mg/kg, iv measured upto 24 hrs; type: ADME, organism-based; details: in vivo
[21] = Cmax in Sprague-Dawley rat at 5 mg/kg, iv measured upto 24 hrs; type: ADME, organism-based; details: in vivo
[22] = AUC(0 to t) in Sprague-Dawley rat at 5 mg/kg, iv measured upto 24 hrs; type: ADME, organism-based; details: in vivo
MB49 = test: Antitumor activity against mouse MB49 cells implanted in male C57BL/6 mouse model assessed as reduction in tumor volume at 1 mg/kg,iv bid measured after 14 days; type: functional, organism-based; details: time 14.0 day
[23] = Antitumor activity against mouse MB49 cells implanted in male C57BL/6 mouse model assessed as tumor growth inhibition at 1 mg/kg,iv bid measured after 14 days relative to control; type: functional; details: MB49, 336 h, time 14 day, read-out: TGI
[24] = Toxicity in male C57BL/6 mouse allografted with mouse MB49 cells assessed as tumor cell necrosis at 1 mg/kg,iv bid measured after 14 days by H and E staining based analysis; type: organism-based; details: in vivo, 336 h, time 14 day
[25] = Antitumor activity against mouse MB49 cells implanted in male C57BL/6 mouse assessed as reduction in Ki67 expression level at 1 mg/kg,iv bid measured after 14 days by immunohistochemical analysis relative to control; type: functional; set-up: scale not given: the % may be the effect or the level left; details: time 14 day
[26] = Cytotoxicity against human LO2 cells measured after 72 hrs by MTT assay; type: toxicity, cell-based, L02
[27] = Solubility of the compound in PEG400; type: physicochemical
[28] = Solubility of the compound in Solutol HS-15; type: physicochemical

C[C@H]1CCC/C=C/[C@@H]2C[C@H](O)C[C@H]2[C@H](OC(=O)c2cccnc2)/C=C/C(=O)O1
inhibition at 0.25 µM (T-24 [1]): 91%
IC50 (T-24 [2]): 0.22 µM
IC50 (A549): 0.23 µM
IC50 (Bel-7402): 0.46 µM
IC50 (HCT-116): 0.58 µM
wound closure at 0.25 µM (T-24 [3]): 17%
wound closure at 0.125 µM (T-24 [4]): 22%
wound closure at 0.25 µM (T-24 [5]): 26%
wound closure at 0.5 µM (T-24 [6]): 17%
Activity (T-24 [7]): 47.36%
Activity (T-24 [8]): 48.88%
Activity (T-24 [9]): 63.82%
Activity (T-24 [10]): 29.56%
Activity (T-24 [11]): 22.53%
viability at 0.25 µM (T-24 [12]): 66.9%
viability at 0.5 µM (T-24 [13]): 65.6%
Activity (T-24 [14]): 6.11%
Activity (T-24 [15]): 3.49%
inhibition (T24): Dose-dependent-effect
Activity [16]: 35%
Activity [17]: 53%
Activity [18]: Non-toxic
Activity [19]: Non-toxic
half-life [20]: 21.6 min
Cmax [21]: 1460 ng/mL
AUC(0-t) at 24 h [22]: 1350 ng·h/mL
Activity (MB49): Active
inhibition in vivo at 1 mg/kg [23]: 51%
Activity [24]: Non-toxic
Activity [25]: 56%
IC50 at 72 h [26]: 0.79 µM
solubility [27]: Not_active
solubility [28]: 2000 µg/mL (≈ 5.19 mM)
